Tests used:
Type in all cases: binding
β-catenin/E-cadherin = molecular target: T1, β-catenin/E-cadherin (Homo sapiens, UniProt P35222); test: FP selectivity assay, β-catenin/cadherin assay
T1 construct: 150 nM human β-catenin (residues 138-781); 6×histidine (C); made in house; host or cells: E. coli BL21 DE3
T1 sequence (P35222 138-781): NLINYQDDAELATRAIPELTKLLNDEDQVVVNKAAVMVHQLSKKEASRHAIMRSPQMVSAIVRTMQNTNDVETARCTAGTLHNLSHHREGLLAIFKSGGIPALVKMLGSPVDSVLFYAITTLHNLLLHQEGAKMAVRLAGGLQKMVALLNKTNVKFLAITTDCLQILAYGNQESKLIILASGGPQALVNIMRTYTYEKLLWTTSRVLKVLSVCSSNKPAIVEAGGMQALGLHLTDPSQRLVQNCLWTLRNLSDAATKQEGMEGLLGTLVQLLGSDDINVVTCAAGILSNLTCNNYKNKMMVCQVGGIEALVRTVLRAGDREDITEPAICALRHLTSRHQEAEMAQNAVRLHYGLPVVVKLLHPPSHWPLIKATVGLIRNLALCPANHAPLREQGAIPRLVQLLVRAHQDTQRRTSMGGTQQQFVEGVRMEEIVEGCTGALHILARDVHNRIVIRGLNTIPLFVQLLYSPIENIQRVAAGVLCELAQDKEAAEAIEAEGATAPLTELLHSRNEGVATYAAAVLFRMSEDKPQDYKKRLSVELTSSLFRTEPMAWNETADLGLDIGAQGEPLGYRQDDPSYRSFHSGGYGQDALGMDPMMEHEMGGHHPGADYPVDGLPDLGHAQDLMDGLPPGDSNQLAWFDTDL
Experimental: (§1) FP Selectivity Assays. Experiments were performed in 96-well Microfluor 2 black plates on a Synergy 2 plate reader (Biotek). The polarization was measured at room temperature with an excitation wavelength at 485 nm and an emission wavelength at 535 nm. The FP experiments were performed in an assay buffer of 25 mM Hepes (pH 7.4), 100 mM NaCl, 0.01% Triton X-100, and 100 μg/ml γ-globulin. The final reaction volume was set to 100 μL. For the β-catenin/Tcf assay, 10 nM human β-catenin (residues 138-781) was incubated with 2.5 nM C-terminally fluorescein-labeled human Tcf4 (residues 7-51) for 30 min at 4° C., and then different concentrations of the compound in assay buffer were added. […] For the β-catenin/cadherin assay, 150 nM human β-catenin (residues 138-781) was incubated with 5 nM C-terminally fluorescent-labeled human E-cadherin (residues 819-873) in assay buffer for 30 min at 4° C. The negative control refers to 5 nM E-cadherin fluorescence tracer and 150 nM β-catenin in assay buffer with no inhibitor presenting. The positive control refers to 5 nM E-cadherin fluorescence tracer in assay buffer. […] The negative control refers to 5 nM APC-R3 fluorescence tracer and 2,000 nM β-catenin in assay buffer without the tested compound. The positive control refers to 5 nM APC-R3 fluorescence tracer in assay buffer. Each assay plate was covered black and gently mixed on an orbital shaker at 4° C. for 2.5 h to reach equilibrium before the polarization values were read. […] The IC50 values were determined by GraphPad Prism 5.0. […] The results were expressed as mean±standard deviation. The Tcf/cahderin selectivity ratio was calculated on the basis of the respective Ki value of the β-catenin/E-cadherin interaction over that of the β-catenin/Tcf4 interaction. The Tcf/APC selectivity ratio was calculated on the basis of the respective Ki value of the β-catenin/APC-R3 interaction over that of the β-catenin/Tcf4 interaction. […]

β-catenin/Tcf4 = molecular target: T2, β-catenin/Tcf4 (Homo sapiens, UniProt P35222); test: FP selectivity assay, β-catenin/Tcf assay; conditions: mean ± SD (n = 3)
T2 construct: Wild-type β-catenin (residues 138-781) were cloned into a pET-28b vector; 6×histidine (C); made in house; host or cells: E. coli BL21 DE3
T2 sequence (P35222 138-781): T1 sequence (P35222 138-781)
Experimental: FP Selectivity Assays. Experiments were performed in 96-well Microfluor 2 black plates on a Synergy 2 plate reader (Biotek). The polarization was measured at room temperature with an excitation wavelength at 485 nm and an emission wavelength at 535 nm. The FP experiments were performed in an assay buffer of 25 mM Hepes (pH 7.4), 100 mM NaCl, 0.01% Triton X-100, and 100 μg/ml γ-globulin. The final reaction volume was set to 100 μL. For the β-catenin/Tcf assay, 10 nM human β-catenin (residues 138-781) was incubated with 2.5 nM C-terminally fluorescein-labeled human Tcf4 (residues 7-51) for 30 min at 4° C., and then different concentrations of the compound in assay buffer were added. […] The negative control refers to 5 nM E-cadherin fluorescence tracer and 150 nM β-catenin in assay buffer with no inhibitor presenting. The positive control refers to 5 nM E-cadherin fluorescence tracer in assay buffer. […] The negative control refers to 5 nM APC-R3 fluorescence tracer and 2,000 nM β-catenin in assay buffer without the tested compound. The positive control refers to 5 nM APC-R3 fluorescence tracer in assay buffer. Each assay plate was covered black and gently mixed on an orbital shaker at 4° C. for 2.5 h to reach equilibrium before the polarization values were read. […] The IC50 values were determined by GraphPad Prism 5.0. […] The results were expressed as mean±standard deviation. […]

β-catenin/APC-R3 = molecular target: T3, β-catenin/APC-R3 (Homo sapiens, UniProt P35222); test: FP selectivity assay, β-catenin/APC-R3 assay
T3 construct: 2000 nM human β-catenin (residues 138-781); 6×histidine (C); made in house; host or cells: E. coli BL21 DE3
T3 sequence (P35222 138-781): T1 sequence (P35222 138-781)
Experimental: as §1

[1] = FP selectivity assay, mean ± SD (n = 3)

SMILES: O=C(O)c1ccc2c(c1)c(CCc1ccc(Cl)cc1)c(CCc1nc3ccccc3s1)n2CCc1nn[nH]n1 [Compound 27, 1-(2-(2H-tetrazol-5-yl)ethyl)-2-(2-(benzo[d]thiazol-2-yl)ethyl)-3-(4-chlorophenethyl)-1H-indole-5-carboxylic acid]
- Ki (β-catenin/E-cadherin; [1]): 26 ± 8 µM
- selectivity for β-catenin/Tcf over β-catenin/cadherin PPI (β-catenin/E-cadherin; FP selectivity assays): 28 fold
- Selectivity Tcf/E-cadherin (β-catenin/E-cadherin; ratio of Ki β-catenin/E-cadherin over Ki β-catenin/Tcf4): 28
- Ki (β-catenin/Tcf4): 0.93 ± 0.51 µM
- Ki (β-catenin/APC-R3; [1]): 74 ± 11 µM
- selectivity for β-catenin/Tcf over β-catenin/APC PPI (β-catenin/APC-R3; FP selectivity assays): 80 fold
- Selectivity Tcf/APC (β-catenin/APC-R3; ratio of Ki β-catenin/APC-R3 over Ki β-catenin/Tcf4): 80

Source: patent US11530186B2, “Inhibitors for the β-catenin / T-cell factor protein-protein interaction” (H. LEE MOFFITT CANCER CENTER AND RESEARCH INSTITUTE, INC., priority 2018, dated 2022)
